# Target: Epidermal growth factor receptor (Homo sapiens, UniProt P00533)
# Experiment: Not found
# From the text: Not found
# Chain of Epidermal growth factor receptor (P00533 whole entry): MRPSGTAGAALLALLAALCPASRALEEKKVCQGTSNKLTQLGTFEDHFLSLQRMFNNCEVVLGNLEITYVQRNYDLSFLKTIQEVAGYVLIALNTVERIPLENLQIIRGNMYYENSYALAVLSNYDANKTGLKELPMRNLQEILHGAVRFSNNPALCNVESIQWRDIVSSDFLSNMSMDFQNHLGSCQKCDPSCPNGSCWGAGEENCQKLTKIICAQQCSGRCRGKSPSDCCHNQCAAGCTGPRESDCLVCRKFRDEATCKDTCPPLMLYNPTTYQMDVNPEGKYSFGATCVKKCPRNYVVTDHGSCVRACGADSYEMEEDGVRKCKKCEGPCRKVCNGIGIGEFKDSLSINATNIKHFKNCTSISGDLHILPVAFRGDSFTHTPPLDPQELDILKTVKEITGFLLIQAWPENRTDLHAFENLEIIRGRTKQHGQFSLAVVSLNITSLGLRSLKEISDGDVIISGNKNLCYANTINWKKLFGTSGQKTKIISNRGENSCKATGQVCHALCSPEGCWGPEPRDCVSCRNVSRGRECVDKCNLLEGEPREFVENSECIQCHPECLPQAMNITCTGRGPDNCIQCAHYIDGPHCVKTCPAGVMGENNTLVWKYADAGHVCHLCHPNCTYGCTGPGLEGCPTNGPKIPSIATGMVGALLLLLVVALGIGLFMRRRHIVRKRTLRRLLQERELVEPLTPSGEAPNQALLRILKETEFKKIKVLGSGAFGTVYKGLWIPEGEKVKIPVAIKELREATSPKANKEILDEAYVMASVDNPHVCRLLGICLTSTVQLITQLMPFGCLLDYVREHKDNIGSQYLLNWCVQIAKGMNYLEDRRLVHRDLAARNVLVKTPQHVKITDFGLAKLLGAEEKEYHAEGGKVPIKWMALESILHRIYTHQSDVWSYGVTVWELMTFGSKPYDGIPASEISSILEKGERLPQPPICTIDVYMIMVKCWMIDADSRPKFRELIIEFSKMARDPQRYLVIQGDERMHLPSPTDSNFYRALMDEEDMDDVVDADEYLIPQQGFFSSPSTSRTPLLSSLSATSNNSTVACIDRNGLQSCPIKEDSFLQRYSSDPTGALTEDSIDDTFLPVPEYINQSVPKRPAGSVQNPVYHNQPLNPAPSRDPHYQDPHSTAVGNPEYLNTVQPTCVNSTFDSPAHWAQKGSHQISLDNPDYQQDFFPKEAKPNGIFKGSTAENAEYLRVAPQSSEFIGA
row,IC50 [nM],Structure (SMILES)
1,< 1,"COc1cc2c(cc1Nc1ncc(Br)c(Nc3ccc4nccnc4c3NS(C)(=O)=O)n1)-c1cnn(C)c1CCN2CC(C)C [US20240034743, Compound 133]"
2,< 1,"COc1cc2c(cc1Nc1ncc(Br)c(Nc3ccc4nccnc4c3P(C)(C)=O)n1)-c1cnn(C)c1CCN2C1CN(CC2CC2)C1 [US20240034743, Compound 70]"
3,< 1,"COc1cc2c(cc1Nc1ncc(Br)c(Nc3ccc4nccnc4c3P(C)(C)=O)n1)-c1cnn(C)c1CCN2C1CC1 [US20240034743, Compound 74]"
4,< 1,"COc1cc2c(cc1Nc1ncc(Br)c(Nc3ccc4nccnc4c3P(C)(C)=O)n1)-c1cnn(C)c1CCN2C1CC2(C1)CN(C)C2 [US20240034743, Compound 89]"
5,< 1,"COc1cc2c(cc1Nc1ncc(C)c(Nc3ccc4nccnc4c3P(C)(C)=O)n1)-c1cnn(C)c1CCN2C(C)C [US20240034743, Compound 85]"
6,< 1,"CCN1CCc2c(cnn2C)-c2cc(Nc3ncc(Br)c(Nc4ccc5nccnc5c4NS(C)(=O)=O)n3)c(OC)cc21 [US20240034743, Compound 139]"
7,< 1,"COc1cc2c(cc1Nc1ncc(Cl)c(Nc3ccc4nccnc4c3P(C)(C)=O)n1)-c1cnn(C)c1CCN2C [US20240034743, Compound 13]"
8,< 1,"COc1cc2c(cc1Nc1ncc(Br)c(Nc3ccccc3P(C)(C)=O)n1)-c1cnn(C)c1CCN2C1CN(C)C1 [US20240034743, Compound 59]"
9,< 1,"COc1cc2c(cc1Nc1ncc(Br)c(Nc3ccc4nccnc4c3P(C)(C)=O)n1)-c1cnn(C)c1CCN2C1CN(C(C)C)C1 [US20240034743, Compound 63]"
10,> 1000,"COc1cc2c(cc1Nc1ncc(Br)c(Nc3ccc4nccnc4c3C(N)=O)n1)-c1cnn(C)c1CCN2C(C)C [US20240034743, Compound 115]"

# The remaining lines, values behind:
row,Structure (SMILES),IC50 [nM]
1,"COc1cc2c(cc1Nc1ncc(Br)c(Nc3ccc4nccnc4c3P(C)(C)=S)n1)-c1cnn(C)c1CCN2C1CC2(C1)CN(C)C2 [US20240034743, Compound 93]",< 1
2,"COc1cc2c(cc1Nc1ncc(Br)c(Nc3ccc4nccnc4c3NS(C)(=O)=O)n1)-c1cnn(C)c1CCN2 [US20240034743, Compound 114]",< 1

# Target: Epidermal growth factor receptor [L858R,T790M,C797S] (Homo sapiens, UniProt P00533, C797S/L858R/T790M)
# Sequence (P00533 25-1210 T790M/C797S/L858R limits assumed): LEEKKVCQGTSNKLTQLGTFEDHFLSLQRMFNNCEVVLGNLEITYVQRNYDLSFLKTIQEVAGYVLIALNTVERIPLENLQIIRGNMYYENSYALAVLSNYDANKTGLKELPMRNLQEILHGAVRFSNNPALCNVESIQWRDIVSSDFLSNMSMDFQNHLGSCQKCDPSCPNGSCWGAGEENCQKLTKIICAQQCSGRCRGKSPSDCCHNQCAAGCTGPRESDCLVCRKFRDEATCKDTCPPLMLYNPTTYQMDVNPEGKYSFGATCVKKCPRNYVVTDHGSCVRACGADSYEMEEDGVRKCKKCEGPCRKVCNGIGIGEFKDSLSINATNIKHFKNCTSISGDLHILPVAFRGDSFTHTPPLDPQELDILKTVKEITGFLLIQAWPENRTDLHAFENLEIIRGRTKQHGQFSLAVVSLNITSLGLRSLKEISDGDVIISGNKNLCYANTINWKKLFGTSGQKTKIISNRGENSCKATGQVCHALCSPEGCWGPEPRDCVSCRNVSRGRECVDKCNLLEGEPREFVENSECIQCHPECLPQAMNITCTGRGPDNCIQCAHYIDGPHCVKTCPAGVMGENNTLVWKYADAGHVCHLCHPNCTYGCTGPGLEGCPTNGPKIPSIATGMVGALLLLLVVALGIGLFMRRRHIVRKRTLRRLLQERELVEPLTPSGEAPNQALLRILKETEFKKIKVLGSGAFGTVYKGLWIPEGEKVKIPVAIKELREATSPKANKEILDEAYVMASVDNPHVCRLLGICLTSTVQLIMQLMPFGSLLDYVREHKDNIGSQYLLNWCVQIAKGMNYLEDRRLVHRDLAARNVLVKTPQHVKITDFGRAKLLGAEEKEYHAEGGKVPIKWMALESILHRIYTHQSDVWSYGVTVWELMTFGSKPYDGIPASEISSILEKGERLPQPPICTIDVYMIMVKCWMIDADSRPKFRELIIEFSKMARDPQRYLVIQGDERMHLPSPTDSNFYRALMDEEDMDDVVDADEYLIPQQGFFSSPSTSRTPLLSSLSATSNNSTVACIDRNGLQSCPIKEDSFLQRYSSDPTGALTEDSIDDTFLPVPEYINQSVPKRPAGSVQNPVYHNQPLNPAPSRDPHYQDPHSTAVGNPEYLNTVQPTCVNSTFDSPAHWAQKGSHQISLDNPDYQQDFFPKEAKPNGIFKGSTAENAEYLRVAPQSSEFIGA
# Experiment: Not found
# From the text: Not found
row,IC50 [nM],Structure (SMILES)
1,< 1,"COc1cc2c(cc1Nc1ncc(Br)c(Nc3ccc4nccnc4c3P(C)(C)=O)n1)-c1cnn(C)c1CCN2C1CC2(C1)CN(C(C)C)C2 [US20240034743, Compound 90]"
2,< 1,"COc1cc2c(cc1Nc1ncc(Br)c(Nc3ccc4nccnc4c3P(C)(C)=O)n1)-c1cnn(C)c1CCN2C(C)=O [US20240034743, Compound 15]"
3,< 1,"COc1cc2c(cc1Nc1ncc(Br)c(Nc3ccc4nccnc4c3P(C)(C)=O)n1)-c1cnn(C)c1CCN2C1CCOCC1 [US20240034743, Compound 88]"
4,< 1,"COc1cc2c(cc1Nc1ncc(Br)c(Nc3ccccc3NS(C)(=O)=O)n1)-c1cnn(C)c1CCN2C [US20240034743, Compound 32]"
5,< 1,"COc1cc2c(cc1Nc1ncc(Br)c(Nc3ccc4nccnc4c3P(C)(C)=O)n1)-c1cnn(C)c1CCN2C1CCN(C)CC1 [US20240034743, Compound 62]"
6,< 1,"COc1cc2c(cc1Nc1ncc(Br)c(Nc3ccc4nccnc4c3P(C)(C)=O)n1)-c1cnn(C)c1CN(C)C2=O [US20240034743, Compound 9]"
7,< 1,"COc1cc2c(cc1Nc1ncc(Br)c(Nc3ccc4nccnc4c3P(C)(C)=O)n1)-c1cnn(C)c1CCN2C [US20240034743, Compound 1]"
8,< 1,"COc1cc2c(cc1Nc1ncc(C(F)(F)F)c(Nc3ccccc3P(C)(C)=O)n1)-c1cnn(C)c1CCN2C [US20240034743, Compound 26]"
9,< 1,"COc1cc2c(cc1Nc1ncc(Br)c(Nc3ccc4nccnc4c3P(C)(C)=O)n1)-c1cnn(C)c1CCN2C1CCCN(C)C1 (stereo not given) [US20240034743, Compound 84]"

# The next lines start with the molecule.
row,Structure (SMILES),IC50 [nM]
1,"COc1cc2c(cc1Nc1ncc(Br)c(Nc3ccccc3P(C)(C)=O)n1)-c1cnn(C)c1CCN2CC(F)(F)F [US20240034743, Compound 73]",< 1
2,"COc1cc2c(cc1Nc1ncc(Br)c(Nc3ccccc3P(C)(C)=O)n1)-c1cnn(C)c1CCC2 [US20240034743, Compound 38]",< 1
3,"COc1cc2c(cc1Nc1ncc(Br)c(Nc3ccccc3P(C)(C)=O)n1)-c1cnn(C)c1CNC2 [US20240034743, Compound 49]",< 1
4,"COc1nc2c(cc1Nc1ncc(Br)c(Nc3ccccc3P(C)(C)=O)n1)-c1cnn(C)c1CCN2 [US20240034743, Compound 51]",< 1
5,"COc1cc2c(cc1Nc1ncc(Br)c(Nc3ccccc3N(C(C)C)S(C)(=O)=O)n1)-c1cnn(C)c1CCN2C(C)C [US20240034743, Compound 124]",> 1000
6,"CCn1ncc2c1CCN(C)c1cc(OC)c(Nc3ncc(Br)c(Nc4ccccc4P(C)(C)=O)n3)cc1-2 [US20240034743, Compound 39]",< 1
7,"CNS(=O)(=O)c1ccccc1Nc1nc(Nc2cc3c(cc2OC)N(C(C)C)CCc2c-3cnn2C)ncc1Br [US20240034743, Compound 127]",> 1000
8,"COc1cc2c(cc1Nc1ncc(Br)c(Nc3ccccc3P(C)(C)=O)n1)-c1cnn(C)c1CC=C2 [US20240034743, Compound 40]",< 1
9,"COc1cc2c(cc1Nc1ncc(Br)c(Nc3ccc4nccnc4c3P(C)(C)=S)n1)-c1cnn(C)c1CCN2C1CCN(C)CC1 [US20240034743, Compound 76]",< 1
10,"COc1cc2c(cc1Nc1ncc(Br)c(Nc3ccccc3P(C)(C)=O)n1)-c1cnc(C)n1CCN2C [US20240034743, Compound 55]",< 1
11,"COc1nc2c(cc1Nc1ncc(Br)c(Nc3ccccc3P(C)(C)=O)n1)-c1cnn(C)c1CCN2C [US20240034743, Compound 79]",< 1
12,"COc1cc2c(cc1Nc1ncc(Br)c(Nc3ccccc3P(C)(C)=O)n1)-c1cnn(C)c1CCN2C1COC1 [US20240034743, Compound 64]",< 1
13,"COc1cc2c(cc1Nc1ncc(Br)c(Nc3cccc4c3NS(=O)(=O)C4)n1)-c1cnn(C)c1CCN2C(C)C [US20240034743, Compound 132]",< 1
14,"COc1cc2c(cc1Nc1ncc(Br)c(Nc3ccccc3P(C)(C)=O)n1)-c1cnn(C)c1CCN2C1CN(CCF)C1 [US20240034743, Compound 69]",< 1
15,"COc1cc2c(cc1Nc1ncc(Br)c(Nc3ccccc3P(C)(C)=O)n1)-c1ccnn1CCN2C [US20240034743, Compound 29]",< 1
16,"COc1cc2c(cc1Nc1ncc(Br)c(Nc3ccccc3P(C)(C)=O)n1)-c1cnn(C)c1CCC2N (stereo not given) [US20240034743, Compound 50]",< 1
17,"COc1cc2c(cc1Nc1ncc(Br)c(Nc3ccccc3P(C)(C)=O)n1)-c1cnn(C)c1COC2 [US20240034743, Compound 46]",< 1
18,"COc1cc2c(cc1Nc1ncc(Br)c(Nc3ccccc3P(C)(C)=O)n1)-c1cnnn1CCN2C [US20240034743, Compound 48]",< 1
19,"COc1cc2c(cc1Nc1nc(Nc3ccccc3P(C)(C)=O)c3sccc3n1)-c1cnn(C)c1CCN2C [US20240034743, Compound 58]",< 1
